From patent US20240082416A1, “AMATOXIN ANALOGS AND USES THEREOF” (THE UNIVERSITY OF BRITISH COLUMBIA, priority 2020, published 2024)
Where “and” joins values, the source holds several entries; their conditions need not be identical. Equal entries are not always repeated. Starred links: 1 amine or outer side, 2 acyl side, 3 side chain; linkers in the order of their positions; H or OH if unused. Positions of bridges follow the written chain, without caps; N, C: chain ends. Non-standard residues stand in square brackets, D forms with d. Residues, ends and D or L forms follow the SMILES beside them. Trp(2-yl) = O=C([C@H](Cc1c([*:3])[nH]c2ccccc12)N[*:1])[*:2]; Ile(4R-OH,5-OH) = C[C@H]([C@H](N)C(=O)O)[C@@H](O)CO; X5 = COC(=O)N[C@@H]1C[C@@H](C(=O)[*:2])N([*:1])C1

Experiments:
[1] = Viability assay against CHO cells (MTT colorimetric assay); assay type: cell-based, Chinese hamster; settings: Chinese hamster, CHO cells, 72 h, replicates n = 1, 2, 3, read-out: % viable cells
Procedure: (§1) (f) Cell culture: Cells were cultured in Minimum Essential Medium Eagle—Alpha Modification (α-MEM) or […] Dulbecco's Modified Eagle Medium (DMEM), purchased from Gibco. […] All cell culture plastic ware was obtained from Coming or Falcon. Cells were cultured at 37° C. in a humidified chamber with 5% CO2. When used in cell culture, DMSO was purified by filtration through a […] filter. All experiments were carried out in a laminar flow culture cabinet, unless otherwise noted.
(§2) Immortalized CHO cells had been stored in liquid nitrogen. To revive cells, a 1-mL tube of the frozen cells in medium containing 10% DMSO was warmed in a 30° C. water bath and diluted with 9 mL of fresh media. Media contained 10% FBS and 100 U/mL penicillin and […] streptomycin, unless otherwise indicated. The cells were incubated in a T-25 flask at 37° C. at 5% CO2. After 24 hours, the medium was aspirated and replaced with fresh medium. When cells reached a level of 90-100% confluence, they were sub-cultured. […] Once the cells were detached from the tissue culture flask, 3-5 mL media was added to quench the trypsin and the mixture was transferred to a 10 mL centrifuge tube. The mixture was centrifuged for 5 min at […], and the supernatant was discarded. The cells were suspended in fresh medium, diluted as required, and transferred to a new culture flask.
(§3) To assay cell viability, a nearly confluent tissue culture flask was trypsinized, and the cells were counted following treatment with Trypan blue, using a hemocytometer. The cells were then diluted to the appropriate stock concentrations in fresh medium and transferred in 100 μL to a 96-well plate using a multi-channel pipette. The number of cells plated varied from experiment to experiment. These were incubated at 37° C. and 5% CO2 for a 24-hour period to allow for adherence. The medium was aspirated, and fresh medium was added, which contained the desired additives in DMSO. The cells were then re-incubated for 72 h. At the completion of the experiment, a 100 μL aliquot of 25 mg/mL MTT in phosphate-buffered saline (PBS) was added to each well. The plate was incubated three hours further to allow for the formation of the formazan product in viable cells. The media was carefully aspirated, and the purple product was solubilized in DMSO. […] Data was processed in Microsoft Excel and GraphPad Prism. Experiments were performed in triplicates unless otherwise noted, and the error bars were calculated as the standard error of the mean.
(§4) Each cell line was plated in a 96-well plate, with 100 μL of the stock solution per well (5000 cells per well) and incubated for 24 hours. […] The cells were incubated for 72 hours, at which point viability was assessed as described.

CHO cells = assay: as above; assay type: cell-based, Chinese hamster; settings: 72 h, replicates n = 1, 2, 3, listed as MeOCOHN-Pro-amanitin (32)
Procedure: as §1, §2, §3, §4

CC[C@H](C)[C@@H]1NC(=O)CNC(=O)[C@@H]2Cc3c([nH]c4ccccc34)SC[C@H](NC(=O)CNC1=O)C(=O)N[C@@H](CC(N)=O)C(=O)N1C[C@H](NC(=O)OC)C[C@H]1C(=O)N[C@@H]([C@@H](C)[C@@H](O)CO)C(=O)N2 [Compound 32, MeOCONH-Pro-amanitin] (cyclo(CN[X5][Ile(4R-OH,5-OH)][Trp(2-yl)]GIG); thioether 1-5)
viability at 72 h, 1e-05 M ([1]; 1e-005 M): 86% | viability at 72 h, 1.25e-06 M ([1]; 1.25e-006 M): 89% | viability at 72 h, 1.56e-07 M ([1]; 1.56e-007 M): 88% | viability at 72 h, 2e-05 M ([1]; 2e-005 M): 99% | viability at 72 h, 2.5e-06 M ([1]; 2.5e-006 M): 88% | viability at 72 h, 3.125e-07 M ([1]; 3.125e-007 M): 89% | viability at 72 h, 5e-06 M ([1]; 5e-006 M): 92% | viability at 72 h, 6.25e-07 M ([1]; 6.25e-007 M): 91% | viability at 72 h, 7.8e-08 M ([1]; 7.8e-008 M): 88% | % viable cells (CHO cells; 1e-005 M): 96% | % viable cells (CHO cells; 1.25e-006 M): 93% | % viable cells (CHO cells; 1.56e-007 M): 87% and 96% | % viable cells (CHO cells; 2e-005 M): 103% and 102% | % viable cells (CHO cells; 3.125e-007 M): 87% and 94% | % viable cells (CHO cells; 5e-006 M): 87% | % viable cells (CHO cells; 6.25e-007 M): 98% | % viable cells (CHO cells; 7.8e-008 M): 97%
